Data: US7780966B2, “Artificial invaplex” (The United States of America as represented by the …, priority 2007, dated 2010)

Experiments:
IpaC = conditions: in vivo
IpaB = conditions: in vivo

Substance: ovalbumin
- Anti-IpaC Serum IgG (geomean endpoint titer) (IpaC): 90 ± 0
- Anti-IpaB Serum IgG (geomean endpoint titer) (IpaB): 90 ± 0
